The target of this assay is T1, human V2 vasopressin receptor subtype (Homo sapiens, UniProt P30518).
T1 construct: host or cells: CHO cells, stably transfected (pZeoSV vector); membranes
The experiment in a line: Vasopressin binding in CHO cell membranes expressing human vasopressin V2 subtype receptors ([3H]arginine vasopressin). The note with it: for inhibition at 0.1 µM / V2 % inhibition @ 100 nM: 100 nM, value without parentheses; for IC50: value in parentheses. The source says: Vasopressin Binding in Chinese Hamster Ovary Cell Membranes Expressing Human Vasopressin V2 Subtype Receptors
Chinese Hamster Ovary (CHO) cells stably transfected with the human V2 subtype receptors were obtained from M. Thibonnier, Case Western Reserve University School of Medicine, Cleveland, Ohio.
A. Passaging and Amplification of Cells:
CHO cells transfected with the human vasopressin V2 subtype receptors obtained from M. Thibonnier (pZeoSV vector) are allowed to grow to confluency (approx. >90%) in T-150 flasks under sterile conditions, in a cell culture medium of F-12 Nutrient Mixture (HAM) with L-glutamine (Gibco Cat. #11765-054) containing 15 mM HEPES (Gibco Cat. #15630-080), 1% antibiotic/antimycotic (add 5 mL 100×, Gibco Cat. #15240-062 per 500 mL F-12), 250 μg/mL Zeocin (add 1.25 mL of 100 mg/mL Invitrogen R-250-01 per 500 mL F-12) and 10% Fetal Bovine Serum (Qualified, heat inactivated, Gibco Cat. #16140-063). The medium is removed by aspiration and the cells washed with 10 mL of Hank's Balanced Salt solution (Gibco Cat. #14175-095). The salt solution is removed by aspiration and the cells trypsinized with 5 mL of trypsin-EDTA (0.05% trypsin, 0.53 mM EDTA-4Na, Gibco Cat. #25300-070) for 1 min. The trypsin is removed by aspiration and the cells dislodged by tapping. Cell Culture medium (e.g. 30 mL for 1:30 split) is immediately added and mixed well to inactivate trypsin. 1 mL of detached cells is added to new culture flasks containing fresh Cell Culture medium (e.g. into 25 mL per T-150 flask), and mixed gently. The cells are incubated at 37° C. in 5% CO2. The medium is changed at 3 to 4 day interval (or as appropriate). The cells grow to confluency (approx. >75%-95%) within 7-8 days. All steps are done under sterile conditions.
The cells are washed twice gently with Hank's Balanced Salt solution (e.g. use 10 mL per T-150 flask). The excess solution is removed and the cells bathed for 15-30 min. in an enzyme-free Cell Dissociation Buffer (e.g. use 8 mL Hank's Based, Gibco Cat. #13150-016 per T-150 flask) until cells are loosened. The contents are transferred to centrifuge tubes (50 mL size) kept in ice bath. All subsequent steps are done at 4° C. The tubes are centrifuged at 300×g for 15 min (1380 rpm on SORVAL, Model RT6000D, using rotor for 50 mL tubes). The supernatant is discarded and the cells suspended in homogeneizing buffer(10 mM Tris-HCl containing 0.25 M sucrose and 1 mM EDTA, pH 7.4) ensuring that the volume of the buffer is about ten times the volume of the cell pellet. The cells are pooled into a centrifuge tube (50 mL) and homogenized with Polytron at setting 6 for 10 sec. The homogenate is transferred into a Potter-Elvjehm homogeneizer and homogenized with 3 strokes. The homogenate is centrifuged at 1500×g for 60 min at 4° C. (3100 rpm using SORVAL, model RT6000D, using rotor for 50 mL tubes). The pellet is discarded. The supernatant is centrifuged at 100,000×g for 60 min. at 4° C. (Beckman L8-80M ultracentrifuge; spin at 37,500 rpm with rotor type 70 Ti for 50 mL tubes; 38,000 rpm with type 80Ti for 15 mL tubes; or 35,800 rpm with rotor type 45Ti). The supernantant is discarded and the pellet suspended in 3 to 4 mL of Tris buffer (50 mM TRIS-HCl, pH 7.4). The protein content is estimated by the Bradford or Lowry method. The volume of the membrane suspension is adjusted with the membrane buffer (50 mM Tris-HCl containing 0.1% BSA and 0.1 mM PMSF) to give 3.0 mg/mL (or as appropriate) of protein. The membranes are aliquoted and stored at −70° C.
C. Radioligand Binding Assay:
In wells of a 96-well format microtiter plate, is added 90, 110 or 130 μL (to make up a final volume of 200 μL) of assay buffer containing 50 mM of Tris-HCl (pH 7.4), […], 1 mg % aprotinin, 1 mg % leupeptin, 2 mg % 1,10-phenanthroline, 10 mg % trypsin inhibitor, and 0.1 mM PMSF. The inhibitors are added on the day of the experiment. […]

T1 sequence (P30518 whole entry): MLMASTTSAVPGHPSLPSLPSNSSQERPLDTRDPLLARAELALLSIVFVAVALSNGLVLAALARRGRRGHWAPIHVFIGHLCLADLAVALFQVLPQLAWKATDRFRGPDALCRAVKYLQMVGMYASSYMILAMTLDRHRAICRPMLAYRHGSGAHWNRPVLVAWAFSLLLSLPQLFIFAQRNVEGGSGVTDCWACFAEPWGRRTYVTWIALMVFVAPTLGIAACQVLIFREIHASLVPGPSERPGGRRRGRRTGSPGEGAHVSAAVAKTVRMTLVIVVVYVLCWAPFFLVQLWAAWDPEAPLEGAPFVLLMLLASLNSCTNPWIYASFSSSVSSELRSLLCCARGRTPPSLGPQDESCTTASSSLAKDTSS

The inhibition is the drop in the measured response relative to a control, in per cent. As for `Cc1cc(C(=O)N2Cc3ccc(C(=O)N[C@@H](CO)C(=O)O)n3Cc3ccccc32)ccc1C1=CCCCC1` [Example 13, (2S)-2-{[10-(4-Cyclohex-1-en-1-yl-3-methyl-benzoyl)-10,11-dihydro-5H-pyrrolo[2,1-c][1,4]benzodiazepine-3-carbonyl]-amino}-3-hydroxy-propionic acid], the inhibition at 0.1 µM turned out to be 9%. What is called IC50 is the point on the concentration scale where inhibition reaches its midpoint. In the case of `Cc1cc(C(=O)N2Cc3ccc(C(=O)N(C)C[C@H](O)[C@@H](O)[C@H](O)[C@H](O)CO)n3Cc3ccccc32)ccc1C1=CCCc2ccccc21` [Example 15], the IC50 stood at 121 nM.

In the case of `COC[C@@H](OC)[C@@H](OC)[C@H](OC)[C@H](CN(C)C(=O)c1ccc2n1Cc1ccccc1N(C(=O)c1cc(Cl)c(C3=CCCCC3)cc1OC)C2)OC` [Example 2, 10-(5-Chloro-4-cyclohex-1-en-1-yl-2-methoxybenzoyl)-N-methyl-N-[(2S,3R,4R,5R)-2,3,4,5,6-pentamethoxyhexyl]-10,11-dihydro-5H-pyrrolo[2,1-c][1,4]benzodiazepine-3-carboxamide], the half-maximal inhibitory concentration (IC50) was found to be 4590 nM. For the compound `COc1cc(C2=CCCCC2)c(Cl)cc1C(=O)N1Cc2ccc(C(=O)O)n2Cc2ccccc21` [Example 1G, 10-(5-Chloro-4-cyclohex-1-en-1-yl-2-methoxybenzoyl)-10,11-dihydro-5H-pyrrolo[2,1-c][1,4]benzodiazepine-3-carboxylic acid], the inhibition at 0.1 µM amounted to 4%. Same read-out and setting: for `COC(=O)[C@@H](CO)NC(=O)c1ccc2n1Cc1ccccc1N(C(=O)c1ccc(C3=CCCCC3)c(C)c1)C2` [Example 12, (2R)-2-{[10-(4-Cyclohex-1-en-1-yl-3-methyl-benzoyl)-10,11-dihydro-5H-pyrrolo[2,1-c][1,4]benzodiazepine-3-carbonyl]-amino}-3-hydroxy-propionic acid methyl ester] the value was 9%; for `Cc1cc(C(=O)N2Cc3ccc(C(=O)O)n3Cc3ccccc32)ccc1C1=CCCc2ccccc21` [Example 15B, 10-[4-(3,4-Dihydro-naphthalen-1-yl)-3-methyl-benzoyl]-10,11-dihydro-5H-pyrrolo[2,1-c][1,4]benzodiazepine-3-carboxylic acid], 40%. Regarding `Cc1cc(C(=O)N2Cc3ccc(C(=O)N[C@@H](Cc4ccc(O)cc4)C(=O)O)n3Cc3ccccc32)ccc1C1=CCCCC1` [Example 10], the “V2 % inhibition @ 100 nM” value is 15%. For `Cc1cc(C(=O)N2Cc3ccc(C(=O)N(C)C[C@@H]4OC(=O)O[C@H]4[C@H](O)[C@H]4COC(=O)O4)n3Cc3ccccc32)ccc1C1=CCCCC1` [Example 7, 10-(4-Cyclohex-1-en-1-yl-3-methylbenzoyl)-N-[((4S,5S)-5-{(R)-hydroxy[(4R)-2-oxo-1,3-dioxolan-4-yl]methyl}-2-oxo-1,3-dioxolan-4-yl)methyl]-N-methyl-10,11-dihydro-5H-pyrrolo[2,1-c][1,4]benzodiazepine-3-carboxamide], the inhibition at 0.1 µM turned out to be 14%. In the case of `Cc1cc(C(=O)N2Cc3ccc(C(=O)N4CCN(CCO)CC4)n3Cc3ccccc32)ccc1C1=CCCCC1` [Example 17, {10-[4-(1-Cyclohex-1-en-1-yl)-3-methylbenzoyl]-10,11-dihydro-5H-pyrrolo[2,1-c][1,4]benzodiazepin-3-yl}[4-(2-hydroxyethyl)-1-piperazinyl]methanone], the “V2 % inhibition @ 100 nM” value is 7%. With `COc1cc(C2=CCCCC2)c(Cl)cc1C(=O)N1Cc2ccc(C(=O)N(C)CC(O)CO)n2Cc2ccccc21` (stereo not drawn) [Example 4, 10-(5-Chloro-4-cyclohex-1-en-1-yl-2-methoxybenzoyl)-N-(2,3-dihydroxypropyl)-N-methyl-10,11-dihydro-5H-pyrrolo[2,1-c][1,4]benzodiazepine-3-carboxamide], the concentration for half-maximal inhibition (IC50) turned out to be 1490 nM. Same read-out and setting: in the case of `Cc1cc(C(=O)N2Cc3ccc(C(=O)N(C)C[C@H](O)[C@@H](O)[C@H](O)[C@H](O)CO)n3Cc3ccccc32)ccc1C1=CCCCC1` [Example 5] it was 2110 nM.

For the compound `CCOC(=O)[C@H](Cc1ccc(O)cc1)NC(=O)c1ccc2n1Cc1ccccc1N(C(=O)c1ccc(C3=CCCCC3)c(C)c1)C2` [Example 9, (2S)-2-{[10-(4-Cyclohex-1-en-1-yl-3-methyl-benzoyl)-10,11-dihydro-5H-pyrrolo[2,1-c][1,4]benzodiazepine-3-carbonyl]-amino}-3-(4-hydroxy-phenyl)-propionic acid ethyl ester], the inhibition at 0.1 µM came out at 11%.
